Test results from patent publication US6632626B1, “Methods of assaying farnesyl transferase” (Board of Regents, The University of Texas System, priority 1990, dated 2003).
“Also recorded” adds a separate entry of the source. Residues, ends and D or L forms follow the SMILES beside them. No end group written: not given here.

Experiments:
Assay type in all cases: biochemical
[1] = molecular target: T1, rat brain farnesyl:protein transferase (Rattus norvegicus, UniProt Q02293+Q04631); test: Farnesyl:protein transferase inhibition: competition with p21H-ras for [3H]farnesyl from [3H]FPP, partially purified enzyme, TCA filter assay
T1 construct: Brains from 50 male Sprague-Dawley rats (100-150 g) were homogenized; from tissue
Description: (§1) Farnesyl:protein transferase activity was determined by measuring the amount of ^3H-farnesol transferred from ^3H]farnesyl pyrophosphate ([^3H]FPP) to p21^H-ras protein. The standard reaction mixture contained the following concentrations of components in a final volume of 25 μl: 50 mM Tris-chloride (pH 7.5), 50 μM ZnCl2, 20 mM KCl, 1 mM DTT, and 40 μM p21^H-ras. The mixture also contained 10 pmoles of [^3H]FPP (−30,000 dpm/pmol) and 1.8-3.5 μg of partially purified farnesyl:protein transferase (see below). After incubation for 1 h at 37° C. in 12×75-mm borosilicate tubes, the reaction was stopped by addition of 0.5 ml of 4% SDS and then 0.5 ml of 30% trichloroacetic acid (TCA).
The tubes were vortexed and left on ice for 45-60 min, after which 2 ml of a 6% TCA/2% SDS solution were added. […] The tubes were rinsed twice with 2 ml of the same solution, and each filter was washed five times with 2 ml of 6% TCA, dried, and counted in a scintillation counter. One unit of activity is defined as the amount of enzyme that transfers 1 pmol of [^3H]farnesol from [^3H]FPP into acid-precipitable p21^H-ras per hour under the standard conditions.
In the enzyme characterization experiments of FIGS. 1-4, 8, and 9, a partially purified fraction of farnesyl:protein transferase was used. […] The column was equilibrated with 50 mM Tris-chloride (pH 7.5) containing 1 mM DTT, 0.2 M NaCl, 20 μM ZnCl2, and 0.2% octyl-β-glucopyranoside and eluted with the same buffer at a flow rate of 15 ml/h.
This blank value was subtracted before calculating “% of control” values.

[2] = molecular target: T2, purified farnesyl:protein transferase (Rattus norvegicus, UniProt Q02293+Q04631); test: Farnesylation of tetrapeptides by purified farnesyl:protein transferase, thin layer chromatography (substrate or pure inhibitor); conditions: 3.6 μM tetrapeptide, purified enzyme (FIG. 15)
T2 construct: Brains from 50 male Sprague-Dawley rats (100-150 g) were homogenized; from tissue
Description: FIG. 15. […] The standard assay mixture (25 μl) contained 17 pmol [^3H]FPP (44,000 dpm/pmol), 5 ng of purified farnesyl:protein transferase, 0.2% (w/v) octyl-β-D-glucoside, and 3.6 μM of the indicated tetrapeptide. After incubation for 15 min at 37° C., the entire reaction mixture was subjected to thin layer chromatography for 4 h on Polygram SIL G sheet (Brinkmann Instruments) in a solvent system containing N-propanol/concentrated NH4OH/water (6:3:1). The TLC sheet was then dried, sprayed with ENHANCE Spray (Dupont-New England Nuclear) and exposed to Kodak X-OMAT AR Film XAR-5 for 25 h at −70° C.

[3] = molecular target: T3, partially purified rat brain farnesyl:protein transferase (Rattus norvegicus, UniProt Q02293+Q04631); test: Substrate saturation of farnesyl:protein transferase (FIG. 2); conditions: 1 h at 37° C.
T3 construct: Brains from 50 male Sprague-Dawley rats (100-150 g) were homogenized; from tissue
Description: FIG. 2. Substrate Saturation Curves for Farnesyl:Protein Transferase. Panel A, each standard reaction mixture contained 1.8 μg of partially purified farnesyl transferase, 40 μg p21^H-ras, [^3H]FPP (250,000 dpm); and varying amounts of unlabeled FPP to give the indicated final concentration of [^3H]FPP. […] For both panels, assays were carried out in duplicate for 1 h at 37° C., and TCA-precipitable radioactivity was measured as described in the Example.
as §1, with “After incubation for 1 h at 37° C. in 12×75-mm borosilicate tubes, the reaction was stopped by addition of 0.5 ml of 4% SDS and then 0.5 ml of 30% trichloroacetic acid (TCA).” left out
The tubes were vortexed and left on ice for 45-60 min, after which 2 ml of a 6% TCA/2% SDS solution were added. […] The tubes were rinsed twice with 2 ml of the same solution, and each filter was washed five times with 2 ml of 6% TCA, dried, and counted in a scintillation counter. […]

pure inhibitor or substrate for farnesylation [2]	concentration giving half-maximal reaction velocity [3]	Compound	inhibitory activity against farnesylation of p21H-ras (in words) [1]
Farnesylation		CC[C@H](C)[C@H](NC(=O)[C@@H](NC(=O)[C@@H](N)CS)C(C)C)C(=O)N[C@@H](CCSC)C(=O)O [CVIM] (H-CVIM-OH; N-terminus and C-terminus assumed)	sufficient for competition
	approximately 0.5 μM	CC(C)=CCC/C(C)=C/CC/C(C)=C/COP(=O)(O)OP(=O)(O)O [[^3H]farnesyl pyrophosphate, [1-^3H]Farnesyl pyrophosphate]	
not a “pure” inhibitor		CFVM: related peptide, inhibitory through action as a substrate for farnesylation (CVFM)	
		S-acetoamidated CVIM: CVIM alkylated on cysteine with iodoacetamide (C(acetamide)VIM)	appears to lose much of its inhibitory activity
		TKVCIM: hexapeptide with cysteine transposed from fourth to third position from the COOH-terminus	severely reduced inhibitory activity; also recorded: inhibitory activity of the peptide is reversed
